Experimental data: patent publication US20070060605A1, “Compositions and methods for inhibiting platelet activation and thrombosis” (priority 2001, published 2007)
pIC50: −log10 of the molar value. Read-outs that look alike come from different tables or passages of the source.

Tests used:
Type in all cases: cell-based, human
platelets = experiment: Agonist-induced platelet granule secretion / activation (P-selectin expression by flow cytometry; ADP/ATP release); conditions: for Inhibition of PMA-induced platelet responses: even at millimolar concentrations
Description: In order to monitor ATP release, a cocktail of 100 μM SFLLR (synthesized using solid phase Fmoc chemistry on an Applied Biosystems model 430A peptide synthesizer) and 3 mg/ml of luciferin/luciferase (Sigma, St. Louis, Mo.) in a volume of 10 μl is added to 20 μl of PRP. Samples are immediately analyzed for luminescence. Activated platelets supply the ATP necessary for luminescence of the luciferin/luciferase assay. Assays can be performed at high throughput through use of a microtiter plate system, e.g., 384-well plates and a Multidrop 384 (Thermo Labsystems, Helsinki), read with a high density imaging system, e.g., the Tundra system (Imaging Research, St. Catherine's, Ontario).
(§1) In order to assay platelet activation by cell surface marker expression, fresh PRP is isolated from donors who have not ingested aspirin for two weeks prior to donation. PRP (40 μl) is incubated with known or suspected inhibitor in DMSO or DMSO alone for 15 min. The sample is then incubated with the indicated agonist (e.g., SFLLR) for 10 min. Following incubation of the sample with the indicated agonist, 10 μl of reaction mixture is transferred to 5 μl of phycoerythrin (PE)-conjugated AC 1.2 anti-P-selectin antibody (for assessment of P-selectin surface expression) or fluorescein isothiocyanate (FITC)-conjugated PAC-1 antibody (for assessment of GPIIbIIIa activation). PBS (500 μl) is added to the sample after a 20 min incubation and the platelets are analyzed immediately by flow cytometry. Flow cytometry can be performed using, for example, a Becton-Dickinson FACSCalibur flow cytometer or its equivalent. Fluorescent channels are set at logarithmic gain. Ten thousand particles are acquired for each sample. A 530/30 band pass filter is used for FL-1 fluorescence. A 585/42 band pass filter is used for FL-2 fluorescence. FITC is measured in the FL-1 channel and PE is measured in the FL-2 channel. Data are analyzed using, for example, CellQuest software on a Macintosh PowerPC, or their equivalents.
Compounds were tested for the ability to inhibit agonist-induced ADP/ATP release from platelet dense granules using a luciferin-luciferase reporter system. In this assay, compounds were incubated with platelet-rich plasma (PRP) for 30 min. A cocktail of the platelet agonist and luciferin-luciferase was then added to the wells. Plates were immediately analyzed using a Tundra high density luminescence imager. […] As a control, compounds were also screened in a platelet-free assay for the ability to inhibit luciferin-luciferase upon exposure to ATP.
Each of the compounds was tested for inhibition of platelet activation in response to the agonists SFLLR (a thrombin mimic), U46619 (a thromboxane A2 mimic), ADP and the phorbol ester PMA.
(§2) Compounds were also tested by flow cytometry for the inhibition of SFLLR-induced GPIIbIIIa activation and P-selectin expression. In these experiments, freshly obtained PRP was prepared from healthy volunteers who had not ingested aspirin for two weeks prior to donation. Forty μl of PRP was incubated with inhibitor in DMSO or DMSO alone for 15 min. The sample was then incubated with the indicated agonist for 10 min. Following incubation of the sample with the indicated agonist, 10 μl of reaction mixture was transferred to 5 μl of PE-conjugated AC1.2 anti-P-selectin antibody (for assessment of P-selectin surface expression) or FITC-conjugated PAC-1 antibody (for assessment of GPIIbIIIa activation). PBS (500 μl) was added to the sample after a 20 min incubation and the platelets were analyzed immediately by flow cytometry. Flow cytometry was performed using a Becton-Dickinson FACSCalibur flow cytometer. Fluorescent channels were set at logarithmic gain. Ten thousand particles were acquired for each sample. A 530/30 band pass filter was used for FL-1 fluorescence. A 585/42 band pass filter was used for FL-2 fluorescence. FITC was measured in the FL-1 channel and PE was measured in the FL-2 channel.

platelet GPIIbIIIa = experiment: SFLLR-induced GPIIbIIIa activation (PAC-1 antibody, flow cytometry); conditions: Homo sapiens, Platelet; agonist SFLLR; read-out: IC50s of inhibition of platelet GPIIbIIIa activation induced with SFLLR
Description: as §1
as §2, with “channel. Data were analyzed using CellQuest software on a MacIntosh PowerPC.” for “channel.”

[1] = system: PGE1-induced cAMP levels in platelets; experiment: Augmentation of PGE1-induced cAMP levels in platelets; conditions: no single concentration
Description: One frequent target of anti-platelet agents is phosphodiesterase III (PDE III). […] The assay is performed as described by Liao et al., 1998, Eur J Pharmacol 349,107-114, incorporated herein by reference. Briefly, aliquots of PRP are exposed to increasing concentrations of the agent for 20 minutes. The PRP is then challenged with 1 μM PGE1 for 2 min The reaction is stopped by adding 10 mM EDTA, followed immediately by boiling for 2 min. The mixture is cooled to 4° C. and the precipitated protein is pelleted. cAMP content in the supernatant is quantitated using an enzyme immunoassay kit (Pharmacia-Amersham, N.J.) according to the instructions of the manufacturer.
In order to assess whether the compounds useful according to the invention might act through inhibition phosphodiesterase III, each was tested for its effect on PGE1-induced cAMP increase. Determination of platelet cAMP levels was performed as described by Liao et al., 1998, supra. Aliquots of PRP were exposed to increasing concentrations of the indicated compounds for 20 min. PRP was then challenged with 1 μM PGE1 for 2 min. The reaction was stopped with the addition of 10 mM EDTA followed immediately by boiling for 2 min. The mixture was then cooled to 4° C. and the precipitated protein was pelleted. Cyclic AMP content in the supernatant was then quantified using an enzyme immunoassay kit (Pharmacia-Amersham, N.J.) according to the instructions of the manufacturer.

[2] = Homo sapiens, Platelet, agonist ADP, read-out: IC50s of inhibition of platelet granule secretion induced with ADP
[3] = Homo sapiens, Platelet, agonist PMA, read-out: IC50s of inhibition of platelet granule secretion induced with PMA
[4] = Homo sapiens, Platelet, agonist U-46619, read-out: IC50s of inhibition of platelet granule secretion induced with U-46619
[5] = Homo sapiens, Platelet, agonist SFLLR, read-out: IC50s of inhibition of platelet granule secretion induced with SFLLR
[6] = Homo sapiens, Platelet, agonists SFLLR and U-46619, read-out: IC50 SFLLR- and U-46619-induced activation
[7] = Homo sapiens, Platelet, agonists U-46619, ADP, PMA, read-out: IC50 U-46619-, ADP-, and PMA-induced platelet responses
[8] = Homo sapiens, Platelet, agonist SFLLRN/SFLLR, human platelets, read-out: IC50 SFLLRN-induced P-selectin expression, flow cytometry

Structure (SMILES) | pIC50 (platelets; [2]) | pIC50 (platelets; [3]) | pIC50 (platelets; [4]) | pIC50 (platelets; [5]) | pIC50 (platelet GPIIbIIIa) | other results
CCOC(=O)C1(C2(O)C(=O)c3ccccc3C2=O)CCCC1=O (centres unmarked) [1-(2-hydroxy-1,3-dioxo-indan-2-yl)-2-oxo-cyclopentanecarboxylic acid ethyl ester] | 4.30 | < 3.00 | 4.52 | 4.30 | 4.30 | Inhibition of PMA-induced platelet responses (platelets; agonist PMA): no activity
Cn1cc(/C=N/NC(N)=O)c2ccccc21 [2-[(1-methyl-1H-indol-3-yl)methylene]-hydrazinecarboxamide] | 3.00 | 3.00 | 4.70 | 4.30 |  | pIC50 (platelets; [6]): 4.30 to 4.70; Effect on ADP- and PMA-induced activation (platelets; agonists ADP and PMA): little effect; Effect on PGE1-stimulated cAMP levels in platelets [1]: augmented
O=C1NC(=O)N(c2cccc3ccccc23)C(=O)/C1=C\c1ccco1 [5-(2-furanylmethylene)-1-1-naphthalenyl)-2,4,6(1H, 3H, 5H)-pyrimidinetrione] |  |  |  |  | 4.00 | pIC50 (platelets; Homo sapiens, Platelet, read-out: IC50s of inhibition of platelet granule secretion induced with ADP): 4.22; pIC50 (platelets; Homo sapiens, Platelet, read-out: IC50s of inhibition of platelet granule secretion induced with PMA): 3.82; pIC50 (platelets; Homo sapiens, Platelet, read-out: IC50s of inhibition of platelet granule secretion induced with SFLLR): 4.00; pIC50 (platelets; Homo sapiens, Platelet, read-out: IC50s of inhibition of platelet granule secretion induced with U-46619): 4.30
O=C(CN1CCOCC1)N1c2ccccc2Sc2ccc(C(F)(F)F)cc21 [10H-phenothiazine, 10-(4-morpholinylacetyl)-2-(trifluoromethyl)] | 3.82 | 4.07 | 4.00 | 4.10 | 4.30 | 
CCCCCn1c2c(c(=N)c3ccccc31)CCC2 [III] |  |  |  |  |  | pIC50 (platelets; [7]): ~3.30
CCCCn1c2c(c(=N)c3ccccc31)CCC2 [II] |  |  |  |  |  | pIC50 (platelets; [7]): ~3.30
CCCn1c2c(c(=N)c3ccccc31)CCC2 [I] |  |  |  |  |  | pIC50 (platelets; [7]): ~3.30
CCCn1c2c(c(=N)c3ccccc31)CCC2 [JF081204{3C}] |  |  |  |  |  | pIC50 (platelets; [8]): 3.82 to 5.70
CCCCn1c2c(c(=N)c3ccccc31)CCC2 [JF081204{4C}] |  |  |  |  |  | pIC50 (platelets; [8]): 3.82 to 5.70
CC1CC(=O)NN=C1c1ccc(Cl)cc1 (centres unmarked) [Structure 9, 6-(4-chlorophenyl)-5-methyl-4,5-dihydro-5 methyl-3(2H)-pyridazinone] | 5.10 |  |  |  |  | ADP-induced responses inhibited less effectively than SFLLR and U46619 responses (platelets; ADP vs SFLLR and U46619): approximately 20 fold; pIC50 (platelets; [6]): 6.52; Inhibition of PMA-induced platelet activation (platelets; agonist PMA): did not inhibit
Nc1cc2cccnc2c2ncccc12 [[1,10]Phenanthroline-5-ylamine] | 4.30 | < 3.00 | 4.52 | 4.30 | 4.30 | pIC50 (platelets; agonist ADP, read-out: IC50s of inhibition of platelet granule secretion induced with ADP): 4.00; Inhibition of PMA-induced platelet responses (platelets; agonist PMA): did not inhibit; Effect on PGE1-stimulated cAMP levels in platelets [1]: failed to augment
CC(=O)OC(CC(=O)c1ccc(Cl)cc1Cl)C(Cl)(Cl)Cl (centres unmarked) [acetic acid 3-(2,4-dichlorophenyl)-3-oxo-1-trichloromethyl-propyl ester] | 3.70 | 3.70 | 4.70 | 4.30 | 4.52 | pIC50 (platelets; Homo sapiens, Platelet, agonists ADP and PMA, read-out: IC50 ADP- and PMA-induced activation): ~3.70; pIC50 (platelets; [6]): 4.30 to 4.70
